Data: article PMC12483202, “Pharmacokinetic profile of oral firocoxib in the koala (Phascolarctos cinereus)” (PLOS One, 2025)

Assay: Single oral dose (5 mg/kg) pharmacokinetics of firocoxib in koalas, plasma HPLC, non-compartmental analysis;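 also: healthy adult koalas, three per sex, anaesthetised the day before dosing for cephalic vein catheterisation, with serial blood draws and firocoxib in plasma quantified by HPLC using fluorescence detection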
Settings: for Cmax / MRT inf / Tmax / Vd/F / k el / half-life / concentration at 2 h / concentration at 4 h / concentration at 8 h / concentration at 1 h / concentration at 0.25 h / concentration at 0.5 h / concentration at 12 h / concentration at 24 h / AUC(0-inf) / AUC(0-t): plasma, po, 5 mg/kg; for MRT inf: MRT0-inf; for Vd/F: Vz/F; for concentration at 2 h / concentration at 4 h / concentration at 8 h / concentration at 1 h / concentration at 0.25 h / concentration at 0.5 h / concentration at 12 h / concentration at 24 h: Firocoxib plasma concentration; for AUC(0-t): AUC0-t
[1] = female, K4 female, single oral 5 mg/kg
[2] = female, K5 female, single oral 5 mg/kg
[3] = female, arithmetic mean, female koalas (n = 3), single oral 5 mg/kg
[4] = female, harmonic mean, female koalas (n = 3), single oral 5 mg/kg
[5] = female, K6 female, single oral 5 mg/kg
[6] = harmonic mean, female koalas (n = 3), single oral 5 mg/kg
[7] = harmonic mean, male koalas (n = 3), single oral 5 mg/kg
[8] = harmonic mean, n = 6 koalas, single oral 5 mg/kg
[9] = male, koala (Phascolarctos cinereus), K1 male, single oral 5 mg/kg
[10] = male, koala (Phascolarctos cinereus), K2 male, single oral 5 mg/kg
[11] = male, koala (Phascolarctos cinereus), K3 male, single oral 5 mg/kg
[12] = male, koala, K1 male, single oral 5 mg/kg
[13] = male, koala, K2 male, single oral 5 mg/kg
[14] = male, koala, K3 male, single oral 5 mg/kg
[15] = male, K1 male, single oral 5 mg/kg
[16] = male, K2 male, single oral 5 mg/kg
[17] = male, K3 male, single oral 5 mg/kg
[18] = male, arithmetic mean, male koalas (n = 3), single oral 5 mg/kg
[19] = male, harmonic mean, male koalas (n = 3), single oral 5 mg/kg
[20] = median (range), n = 6 koalas, single oral 5 mg/kg

Description: Six mature koalas (3 males, 3 females) with median (range) body weights and ages of 9.2 kg, (7.5 to 9.7 kg) and 4.8 years (4.3 to 9.1 years), respectively, were recruited from the Taronga Zoo colony (Mosman, NSW, Australia). These koalas were clinically normal based on regular physical examinations, haematological and biochemical analyte values. During the study, koalas were housed singly and supplied with various Eucalyptus spp. foliage and water ad-libitum. […] No animals were sacrificed; the animals were returned to the colony immediately after firocoxib administration and blood sampling. In order to minimise stress, intravenous catheterisation for sequential blood sampling was performed under general anaesthesia.
The day prior to drug administration and blood collection, the koalas were anaesthetised with alfaxalone (Alfaxan, Jurox, Pty Ltd, Rutherford, NSW, Australia) at 3 mg/kg administered intramuscularly (i.m.) and maintained under anaesthesia on isoflurane in 100% oxygen via a face mask for placement of a 20 gauge, 1 ¼ inch intravenous catheter into the cephalic vein. A short T-connector extension set (Codan, Santa Ana, CA, USA) and cap was attached to the catheter and flushed with saline. The extension tube, cap and catheter were secured with tape and bandage, for serial blood collection. Blood (5 mL) was collected at the time of anaesthesia in a lithium heparin tube to establish a baseline (t = 0 h).
Firocoxib was administered as a single oral dose of 5 mg/kg as crushed tablets made into a paste with Vetafarm Koala Crittacare (Wagga Wagga, NSW) and water.
Samples were centrifuged at 1500 x g for 10 minutes, within 1 h of collection; the plasma was immediately stored at –80 °C and protected from light until drug quantification. […] Clinical observations for the presence of adverse effects in the animals treated included measurement of vital signs, appetite, body weight, faecal consistency and overall behaviour and mobility.
Quantification of firocoxib and visualisation of metabolites in plasma was achieved by HPLC with fluorescence detection modified from a published method [12]. The HPLC system consisted of a Shimadzu LC-20AT solvent delivery unit, DGU-20A degasser, a SIL-20A HT auto injector, an SPD-20A UV detector and RF-10A XL fluorescence detector (Shimadzu, Rydalmere, NSW, Australia) and column oven (CTO-20A). […] Chromatographic separation was performed with a Supelco, Discovery C18, (25 cm x 4.6 mm, 5 µm) column (Merck KGaA, Darmstadt, Germany) with a 1-mm Opti-guard C18 pre-column (Choice Analytical, Thornleigh, NSW, Australia) at ambient temperature. […] Fluorescence detection excitation and emission wavelengths were 280 nm and 375 nm, respectively.
For sample preparation 200 μL of each of the following: plasma samples collected from koalas administered firocoxib, standards prepared for the standard curves and the QC samples; were extracted twice by mixing with 800 μL of ethyl acetate. The extracted organic portion (1.6 mL) was dried under vacuum in a Speed Vac Concentrator (Thermo Scientific, MA, USA) at 35 °C for 1 h, reconstituted with 100 μL of acetonitrile, and finally 10 μL of the reconstituted sample was injected into the HPLC system.
The concentration of each QC sample was repeated three times with the accuracy and precision calculated on each of the triplicates. The mean accuracy ± standard deviation (SD) were calculated using the formula [13]:
Firocoxib plasma concentrations from the initial oral administration underwent non-compartmental analysis. The peak concentration (Cmax) and the time reached (Tmax) were obtained directly from the measured concentrations. The elimination half-life (t1/2) was determined by ln2/ke where ke is the elimination rate constant which is the inverse slope of the elimination or terminal part of the semi-log curve.

CC1(C)OC(=O)C(OCC2CC2)=C1c1ccc(S(C)(=O)=O)cc1 [firocoxib]
Cmax (female, median value, female koalas, PO 5 mg/kg): 61.9 ng/mL | MRT inf [1]: 8.74 h | MRT inf [2]: 13.1 h | MRT inf [3]: 16.1 h | MRT inf [4]: 13.1 h | Tmax [1]: 4 h | Tmax [2]: 2 h | Tmax [5]: 4 h | Tmax [3]: 3.33 h | Tmax [4]: 3 h | Vd/F [1]: 202 L | Vd/F [2]: 616 L | Vd/F [5]: 2130 L | Vd/F [3]: 982 L | Vd/F [4]: 437 L | k el (female, ke (elimination constant), K4 female, single oral 5 mg/kg, slope from 8, 12, 24 h): 5.28e-05 s⁻¹ | k el (female, ke (elimination constant), K5 female, single oral 5 mg/kg, slope from 8, 12, 24 h): 1.94e-05 s⁻¹ | k el (female, ke (elimination constant), K6 female, single oral 5 mg/kg, slope from 8,12,24 h): 2.78e-05 s⁻¹ | k el (female, ke, arithmetic mean, female koalas (n = 3), single oral 5 mg/kg): 3.33e-05 s⁻¹ | k el (female, ke, harmonic mean, female koalas (n = 3), single oral 5 mg/kg): 2.78e-05 s⁻¹ | half-life (female, t1/2 (elimination half-life), K4 female, single oral 5 mg/kg): 3.67 h | half-life (female, t1/2 (elimination half-life), K5 female, single oral 5 mg/kg): 9.91 h | half-life (female, t1/2 (elimination half-life), K6 female, single oral 5 mg/kg): 7.24 h | half-life (female, t1/2, arithmetic mean, female koalas (n = 3), single oral 5 mg/kg): 6.94 h | half-life (female, t1/2, harmonic mean, female koalas (n = 3), single oral 5 mg/kg): 5.87 h | half-life (female, t1/2, median value, female koalas, PO 5 mg/kg): 7.24 h | AUC 0-t/AUC0-inf [6]: 0.91 | AUMC 0-inf [6]: 10875.3 ng/mL*h^2 | Cl/F [6]: 52.0 L/h | ka [6]: 0.25 h⁻¹ | AUC 0-t/AUC0-inf [7]: 0.88 | AUMC 0-inf [7]: 16711.5 ng/mL*h^2 | Cl/F [7]: 23.8 L/h | ka [7]: 0.16 h⁻¹ | AUMC [8]: 13176.1 ng/mL*h ^ 2 | Cl/F [8]: 32.6 L/h | ka [8]: 0.20 h⁻¹ | concentration at 2 h [9]: 22.7 ng/mL | concentration at 4 h [9]: 68.3 ng/mL | concentration at 8 h [9]: 191 ng/mL | concentration at 2 h [10]: 39.2 ng/mL | concentration at 4 h [10]: 210 ng/mL | concentration at 8 h [10]: 118 ng/mL | concentration at 1 h [11]: 41.9 ng/mL | concentration at 2 h [11]: 105 ng/mL | concentration at 4 h [11]: 263 ng/mL | concentration at 8 h [11]: 128 ng/mL | concentration at 0.25 h [12]: 7.94 ng/mL | concentration at 0.5 h [12]: 4.51 ng/mL | concentration at 1 h [12]: 8.34 ng/mL | concentration at 12 h [12]: 101 ng/mL | concentration at 24 h [12]: 57.2 ng/mL | concentration at 0.25 h [13]: 4.37 ng/mL | concentration at 0.5 h [13]: 10 ng/mL | concentration at 1 h [13]: 21.7 ng/mL | concentration at 12 h [13]: 39.7 ng/mL | concentration at 24 h [13]: 4.13 ng/mL | concentration at 0.25 h [14]: 16.6 ng/mL | concentration at 0.5 h [14]: 52.5 ng/mL | concentration at 12 h [14]: 49.6 ng/mL | concentration at 24 h [14]: 3.86 ng/mL | AUC(0-inf) (male, AUC0-inf, K1 male, single oral 5 mg/kg): 3000 ng·h/mL | AUC(0-inf) (male, AUC0-inf, K2 male, single oral 5 mg/kg): 1540 ng·h/mL | AUC(0-inf) (male, AUC0-inf, K3 male, single oral 5 mg/kg): 1950 ng·h/mL | AUC(0-inf) (male, AUC 0-inf, arithmetic mean, male koalas (n = 3), single oral 5 mg/kg): 2160 ng·h/mL | AUC(0-inf) (male, AUC 0-inf, harmonic mean, male koalas (n = 3), single oral 5 mg/kg): 2010 ng·h/mL | AUC(0-t) [15]: 2160 ng·h/mL | AUC(0-t) [16]: 1520 ng·h/mL | AUC(0-t) [17]: 1930 ng·h/mL | AUC(0-t) [18]: 1870 ng·h/mL | AUC(0-t) [19]: 1830 ng·h/mL | Cmax [15]: 191 ng/mL | Cmax [16]: 210 ng/mL | Cmax [17]: 263 ng/mL | Cmax [18]: 221 ng/mL | Cmax [19]: 217 ng/mL | Cmax (male, median value, male koalas, PO 5 mg/kg): 210 ng/mL | MRT inf [15]: 19 h | MRT inf [16]: 7.13 h | MRT inf [17]: 6.88 h | MRT inf [18]: 11.1 h | MRT inf [19]: 9.01 h | Tmax [15]: 8 h | Tmax [16]: 4 h | Tmax [17]: 4 h | Tmax [18]: 5.33 h | Tmax [19]: 4.8 h | Vd/F [15]: 277 L | Vd/F [16]: 152 L | Vd/F [17]: 113 L | Vd/F [18]: 181 L | Vd/F [19]: 158 L | k el (male, ke (elimination constant), K1 male, single oral 5 mg/kg, slope from 12, 24 h): 1.39e-05 s⁻¹ | k el (male, ke (elimination constant), K2 male, single oral 5 mg/kg, slope from 4, 8, 12 h): 5.83e-05 s⁻¹ | k el (male, ke (elimination constant), K3 male, single oral 5 mg/kg, slope from 4, 8, 12 h): 6.11e-05 s⁻¹ | k el (male, ke, arithmetic mean, male koalas (n = 3), single oral 5 mg/kg): 4.44e-05 s⁻¹ | k el (male, ke, harmonic mean, male koalas (n = 3), single oral 5 mg/kg): 2.78e-05 s⁻¹ | half-life (male, t1/2 (elimination half-life), K1 male, single oral 5 mg/kg): 14.7 h | half-life (male, t1/2 (elimination half-life), K2 male, single oral 5 mg/kg): 3.31 h | half-life (male, t1/2 (elimination half-life), K3 male, single oral 5 mg/kg): 3.19 h | half-life (male, t1/2, arithmetic mean, male koalas (n = 3), single oral 5 mg/kg): 7.06 h | half-life (male, t1/2, harmonic mean, male koalas (n = 3), single oral 5 mg/kg): 4.38 h | half-life (male, t1/2, median value, male koalas, PO 5 mg/kg): 3.31 h | AUMC [20]: 12429.4 (8500.1–56998.2) ng/mL*h ^ 2 | Cl/F [20]: 34.5 (19.0-87.5) L/h | ka [20]: 0.23 (0.11-0.43) 1/h | time after which firocoxib could be detected in the plasma of all koalas (single oral 5 mg/kg): 15 min
